These results are taken from patent publication US7732447B2, “Fused [d]pyridazin-7-ones” (Cephalon, Inc., priority 2006, dated 2010).

pIC50: −log10 of the molar value.

One series deals with T1, MLK1 (GST-MLK1KD) (Homo sapiens, UniProt P80192).
T1 construct: 1 μg/mL of baculoviral GST-MLK1KD (Lot 23.1A); GST; made in house
Briefly: Mixed Lineage Kinase-1 inhibition assay (32P, myelin basic protein). It is filed as biochemical. Particulars: 60 μM ATP; for inhibition at 1 µM: 1 uM compound, read-out: MLK-1 % inhibition @ 1 uM; for pIC50: read-out: MLK-1 IC50. The method, then:
The activity assay for MLK1 was performed using the 96-well Millipore Multiscreen plate format. Each 50-μL assay mixture contained 50 mM HEPES (pH 7.0), 1 mM EGTA, 10 mM MgCl2, 1 mM DTT, 25 mM β-glycerophosphate, 60 μM ATP, 1 μCi [γ-^32P]ATP, 0.1% BSA, 500 μg/mL myelin basic protein (Upstate #13-104), 2% DMSO, various concentrations of test compound, and 1 μg/mL of baculoviral GST-MLK1KD (Lot 23.1A). Samples were incubated for 15 minutes at 37° C. The reaction was stopped by adding ice-cold 50% trichloroacetic acid (TCA) and the proteins were allowed to precipitate for 30 minutes at 4° C. The plates were then washed with ice-cold 25% TCA. Supermix scintillation cocktail was added, and the plates were allowed to equilibrate for 1-2 hours prior to counting in the Wallac MicroBeta 1450 Plus scintillation counter.

Series [1] deals with T2, vascular endothelial growth factor receptor-2 (VEGFR2) cytoplasmic domain (Homo sapiens, UniProt P35968).
T2 construct: recombinant baculovirus-expressed vascular endothelial growth factor receptor-2 (VEGFR2) cytoplasmic domain; made in house
T2 sequence (P35968 786-1356 limits assumed, species assumed): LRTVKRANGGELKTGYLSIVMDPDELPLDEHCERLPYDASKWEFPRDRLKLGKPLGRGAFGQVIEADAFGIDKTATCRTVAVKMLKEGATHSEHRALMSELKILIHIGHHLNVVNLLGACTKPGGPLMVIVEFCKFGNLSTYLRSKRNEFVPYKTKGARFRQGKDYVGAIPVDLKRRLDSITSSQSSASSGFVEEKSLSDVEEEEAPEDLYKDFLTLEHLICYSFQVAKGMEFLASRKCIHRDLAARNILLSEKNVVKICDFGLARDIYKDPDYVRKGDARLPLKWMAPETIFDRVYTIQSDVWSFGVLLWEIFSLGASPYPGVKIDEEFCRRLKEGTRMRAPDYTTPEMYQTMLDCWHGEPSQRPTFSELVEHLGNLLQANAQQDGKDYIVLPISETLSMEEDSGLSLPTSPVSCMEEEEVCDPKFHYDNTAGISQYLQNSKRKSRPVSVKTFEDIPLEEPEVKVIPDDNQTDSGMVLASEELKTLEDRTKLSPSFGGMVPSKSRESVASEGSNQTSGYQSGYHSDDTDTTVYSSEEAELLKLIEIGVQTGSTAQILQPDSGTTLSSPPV
Briefly: Vascular Endothelial Growth Factor Receptor-2 kinase inhibition assay (TRF). In kind it is biochemical. Particulars: 300 nM compound; 40 μM ATP; read-out: VEGFR-2 % inhibition @ 300 nM. The procedure:
Compounds were tested for their ability to inhibit the kinase activity of recombinant baculovirus-expressed vascular endothelial growth factor receptor-2 (VEGFR2) cytoplasmic domain using the time-resolved fluorescence (TRF) detection system. IC50s were conducted in 96-well Costar high binding plates (Corning Costar #3922, Corning, N.Y.). Briefly, each 96-well plate was coated with 100 μL/well of 10 μg/mL recombinant substrate, glutathione S-transferase-phospholipase C-γ fusion protein (GST-PLCγ Lot # 3P5.1A), in Tris-buffered saline (TBS). The VEGFR2 assay mixture (total volume=100 μL/well) consisting of 20 mM HEPES, pH 7.2, 40 μM ATP, 10 mM MnCl2, 0.1% bovine serum albumin (BSA), and test compound (diluted in DMSO; 2.5% DMSO final in assay) was then added to the assay plate. Enzyme (30 ng/mL VEGFR2 Lot # V2g-2.1A) was added and the reaction was allowed to proceed at 37° C. for 15 minutes. Detection of the phosphorylated product was performed by adding 100 μL/well of Eu-N1 labeled PY100 antibody (PerkinElmer Life Sciences #AD0160, Boston, Mass.) diluted 1:5000 in 0.25% BSA in TBS containing 0.05% Tween-20 (TBS-T). Incubation at 37° C. then proceeded for 1 hour, followed by addition of 100 μL enhancement solution (PerkinElmer Life Sciences #1244-105, Boston, Mass.). The plate was gently agitated and after 30 minutes, the fluorescence of the resulting solution was measured using the PerkinElmer EnVision 2100 (or 2102) multilabel plate reader.

The target of a further series is CDK5/GST-p25 (Homo sapiens, UniProt Q00535). Briefly: Cyclin-Dependent Kinase 5 inhibition assay (TRF). It is filed as biochemical. The following applies: 10 μM ATP; read-out: CDK-5 IC50. The procedure: Compounds were tested for their ability to inhibit the kinase activity of baculovirus-expressed cyclin-dependent kinase-5 complexed with GST-p25 (CDK5/GST-p25) using a a TRF detection system. Each 96-well Costar high binding plate (Corning Costar #3922, Corning, N.Y.) was coated with 100 μL/well of 50 μg/mL recombinant GST-tagged substrate [GST-retinoblastoma protein (Rb) Lot # 5.1A] in TBS. The CDK5/GST-p25 assay mixture (total volume=100 μL/well) consisting of 20 mM HEPES, pH 7.2, 10 μM ATP, 10 mM MgCl2, 5 mM EGTA, 25 mM β-glycerophosphate, 0.1% BSA, 2.5% DMSO, and various concentrations of test compound were then added to the assay plate. Enzyme (2 ng/mL CDK5/GST-p25 Lot # p25/CD5-3) was added and the reaction was allowed to proceed at 37° C. for 20 minutes. Detection of the phosphorylated product was performed by adding 100 μL/well of phospho-Rb (Ser-780) antibody (Cell Signaling #9307, Beverly, Mass.) diluted 1:10,000 in antibody dilution buffer (0.1% BSA in TBS-T). After 1-hour incubation at room temperature, 100 μL/well of Eu—N1 labelled anti-rabbit antibody diluted 1:50,000 in antibody dilution buffer (PerkinElmer Life Sciences #AD0105, Boston, Mass.) was added. Incubation at room temperature then proceeded for 1 hour, followed by addition of 100 μl enhancement solution (PerkinElmer Life Sciences #1244-105, Boston, Mass.). The plate was gently agitated and after a few minutes, the fluorescence of the resulting solution was measured using the PerkinElmer EnVision 2100 (or 2102) multilabel plate reader.
Chain of CDK5/GST-p25 (Q00535 whole entry, species assumed): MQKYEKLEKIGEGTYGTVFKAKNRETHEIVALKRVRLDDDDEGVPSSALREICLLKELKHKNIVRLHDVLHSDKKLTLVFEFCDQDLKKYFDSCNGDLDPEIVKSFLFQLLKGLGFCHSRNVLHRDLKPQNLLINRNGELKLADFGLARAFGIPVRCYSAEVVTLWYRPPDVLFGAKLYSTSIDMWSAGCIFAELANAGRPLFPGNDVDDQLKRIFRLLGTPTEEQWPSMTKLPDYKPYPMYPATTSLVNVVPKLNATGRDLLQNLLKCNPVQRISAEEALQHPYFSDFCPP
Chain of CDK5/GST-p25 (Q15078 99-307 partner limits assumed, species assumed): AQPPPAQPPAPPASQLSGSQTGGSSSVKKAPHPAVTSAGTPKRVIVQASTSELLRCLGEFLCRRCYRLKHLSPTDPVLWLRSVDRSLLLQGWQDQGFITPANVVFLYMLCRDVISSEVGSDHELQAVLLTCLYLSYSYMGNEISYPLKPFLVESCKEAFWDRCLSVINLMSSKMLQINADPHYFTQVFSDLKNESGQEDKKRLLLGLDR

T1 sequence (P80192 144-412 limits assumed, species assumed): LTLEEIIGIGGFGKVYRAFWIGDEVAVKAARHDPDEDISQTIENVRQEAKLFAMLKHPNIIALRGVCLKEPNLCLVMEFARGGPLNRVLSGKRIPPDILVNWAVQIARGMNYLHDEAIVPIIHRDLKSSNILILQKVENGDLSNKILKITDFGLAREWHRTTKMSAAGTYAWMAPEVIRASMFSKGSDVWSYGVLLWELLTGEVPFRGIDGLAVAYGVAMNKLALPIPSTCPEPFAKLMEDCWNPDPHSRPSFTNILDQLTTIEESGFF

Regarding `Cn1c(-c2n[nH]c(=O)c3c2[nH]c2ccccc23)nc2ccccc21` [Example 4h, 4-(1-Methyl-1H-benzoimidazol-2-yl)-2,5-dihydro-pyridazino[4,5-b]indol-1-one], the inhibition (in general, the percentage by which the read-out fell short of the control) at 1 µM on MLK1 (GST-MLK1KD) is 0%. The inhibition at 0.3 µM in series [1] came to 0%.

For `O=c1[nH]nc(-c2ccncc2)c2[nH]c3ccccc3c12` [Example 4d, 4-Pyridin-4-yl-2,5-dihydro-pyridazino[4,5-b]indol-1-one], on MLK1 (GST-MLK1KD), the inhibition at 1 µM was found to be 0%. For the same compound, the pIC50 (in general, the negative decadic logarithm of the IC50, by convention in mol/L) at CDK5/GST-p25 is 5.42. The inhibition at 0.3 µM in series [1] came to 18%.

For the compound `O=c1[nH]nc(-c2cc3ccccc3s2)c2c1[nH]c1ccccc12` [Example 14b, 1-Benzo[b]thiophen-2-yl-3,5-dihydro-pyridazino[4,5-b]indol-4-one], the inhibition at 1 µM at MLK1 (GST-MLK1KD) was 0%. Further, the inhibition at 0.3 µM in series [1] turned out to be 3%.

Consider `O=c1[nH]nc(-c2ccc(O)cc2)c2[nH]c3ccccc3c12` [Example 4s, 4-(4-Hydroxy-phenyl)-2,5-dihydro-pyridazino[4,5-b]indol-1-one], for which the melting point (commonly the temperature, or range, at which the solid turns liquid) is > 300 °C. In addition, the pIC50 on CDK5/GST-p25 was 6.18.

On to `O=c1[nH]nc(-c2ccc(-c3ccccc3)cc2)c2[nH]c3ccccc3c12` [Example 4i, 4-Biphenyl-4-yl-2,5-dihydro-pyridazino[4,5-b]indol-1-one], for which the inhibition at 1 µM at MLK1 (GST-MLK1KD) was found to be 14%. The inhibition at 0.3 µM in series [1] amounted to 16%.

`O=c1[nH]nc(-c2cc3ccccc3o2)c2[nH]c3ccc(O)cc3c12` [Example 4q, 4-Benzofuran-2-yl-8-hydroxy-2,5-dihydro-pyridazino[4,5-b]indol-1-one]: the inhibition at 0.3 µM at MLK1 (GST-MLK1KD) (300 nM compound, read-out: MLK-1 % inhibition (@300 nM)) is 67%; in series [1], 21%. Also, the pIC50 at MLK1 (GST-MLK1KD) was 6.86.

Consider `COc1ccc2[nH]c3c(-c4cc5ccccc5o4)n[nH]c(=O)c3c2c1` [Example 4l, 4-Benzofuran-2-yl-8-methoxy-2,5-dihydro-pyridazino[4,5-b]indol-1-one], for which, on MLK1 (GST-MLK1KD), the inhibition at 1 µM is 53% and the pIC50 was 5.99. Besides, in series [1], the inhibition at 0.3 µM turned out to be 9%.

With `O=c1[nH]nc(-c2ccccn2)c2[nH]c3ccccc3c12` [Example 4b, 4-Pyridin-2-yl-2,5-dihydro-pyridazino[4,5-b]indol-1-one], the inhibition at 1 µM on MLK1 (GST-MLK1KD) stood at 0%. Further, in series [1], the inhibition at 0.3 µM was found to be 7%.

On to `O=c1[nH]nc(-c2ccc(O)cc2)c2c1[nH]c1ccccc12` [Example 14e, 1-(4-Hydroxy-phenyl)-3,5-dihydro-pyridazino[4,5-b]indol-4-one], for which, at CDK5/GST-p25, the pIC50 is < 5.52.

Regarding `Cn1c2ccccc2c2c(=O)[nH]nc(-c3cc4ccccc4o3)c21` [Example 11a, 4-Benzofuran-2-yl-5-methyl-2,5-dihydro-pyridazino[4,5-b]indol-1-one], at MLK1 (GST-MLK1KD), the inhibition at 1 µM was 19%. Besides, the inhibition at 0.3 µM in series [1] was 0%.

Regarding `O=c1[nH]nc(-c2ccc3ccccc3c2)c2c1[nH]c1ccccc12` [Example 14c, 1-Naphthalen-2-yl-3,5-dihydro-pyridazino[4,5-b]indol-4-one], the inhibition at 1 µM on MLK1 (GST-MLK1KD) is 12%. Moreover, the inhibition at 0.3 µM in series [1] is 1%.

For `O=c1[nH]nc(-c2cc3ccccc3o2)c2[nH]c3cc4c(cc3c12)OCO4` [Example 4m, 8-Benzofuran-2-yl-6,9-dihydro-1,3-dioxa-6,7,9-triaza-cyclopenta[b]fluoren-5-one], the inhibition at 1 µM on MLK1 (GST-MLK1KD) worked out at 46%. Further, the inhibition at 0.3 µM in series [1] was 0%.

`O=c1[nH]nc(-c2nccs2)c2[nH]c3ccccc3c12` [Example 4f, 4-Thiazo-2-yl-2,5-dihydro-pyridazino[4,5-b]indol-1-one]: the inhibition at 1 µM on MLK1 (GST-MLK1KD) stood at 5%. Further, the inhibition at 0.3 µM in series [1] was determined as 0%.

On to `O=c1[nH]nc(-c2cnc3ccccc3n2)c2[nH]c3ccccc3c12` [Example 4j, 4-Quinoxalin-2-yl-2,5-dihydro-pyridazino[4,5-b]indol-1-one], for which the inhibition at 1 µM at MLK1 (GST-MLK1KD) is 0%. For the same compound, the inhibition at 0.3 µM in series [1] came to 0%.

As for `Cn1c2ccccc2c2c(=O)[nH]nc(-c3cc4ccccc4s3)c21` [Example 11b, 4-Benzo[b]thiophen-2-yl-5-methyl-2,5-dihydro-pyridazino[4,5-b]indol-1-one], the inhibition at 1 µM on MLK1 (GST-MLK1KD) amounted to 0%. In addition, the inhibition at 0.3 µM in series [1] was determined as 0%.

Consider `O=c1[nH]nc(-c2cc3ccccc3o2)c2[nH]c3ccc(OCc4ccccc4)cc3c12` [Example 4o, 4-Benzofuran-2-yl-8-benzyloxy-2,5-dihydro-pyridazino[4,5-b]indol-1-one], for which, on MLK1 (GST-MLK1KD), the inhibition at 1 µM came out at 73% and the pIC50 was 6.42. Also, in series [1], the inhibition at 0.3 µM was found to be 10%.

Take `O=c1[nH]nc(-c2cc3ccccc3o2)c2[nH]c3cccc(OCc4ccccc4)c3c12` [Example 4n, 4-Benzofuran-2-yl-9-benzyloxy-2,5-dihydro-pyridazino[4,5-b]indol-1-one]: the inhibition at 1 µM at MLK1 (GST-MLK1KD) came out at 44%. Besides, in series [1], the inhibition at 0.3 µM is 2%.

As to `O=c1[nH]nc(-c2cc3ccccc3o2)c2[nH]c3ccccc3c12` [Example 4k, 4-Benzofuran-2-yl-2,5-dihydro-pyridazino[4,5-b]indol-1-one], at MLK1 (GST-MLK1KD), the inhibition at 1 µM was 41% and the pIC50 was 5.57. Further, the inhibition at 0.3 µM in series [1] worked out at 0%.

On to `Cn1c2ccccc2c2c(=O)[nH]nc(-c3ccc4ccccc4c3)c21` [Example 11c, 5-Methyl-4-naphthalen-2-yl-2,5-dihydro-pyridazino[4,5-b]indol-1-one], for which the inhibition at 1 µM on MLK1 (GST-MLK1KD) was 0%. The inhibition at 0.3 µM in series [1] is 3%.

Regarding `Cn1ccnc1-c1n[nH]c(=O)c2c1[nH]c1ccccc12` [Example 4g, 4-(1-Methyl-1H-imidazol-2-yl)-2,5-dihydro-pyridazino[4,5-b]indol-1-one], at MLK1 (GST-MLK1KD), the inhibition at 1 µM amounted to 2%. Moreover, the inhibition at 0.3 µM in series [1] was found to be 0%.

Consider `O=c1[nH]nc(-c2cc3ccccc3o2)c2[nH]c3cc(OCc4ccccc4)ccc3c12` [Example 4p, 4-Benzofuran-2-yl-7-benzyloxy-2,5-dihydro-pyridazino[4,5-b]indol-1-one], for which the inhibition at 1 µM at MLK1 (GST-MLK1KD) came out at 0%. The inhibition at 0.3 µM in series [1] was determined as 14%.

Regarding `Cc1ccc(-c2n[nH]c(=O)c3c2[nH]c2ccccc23)o1` [Example 4e, 4-(5-Methyl-furan-2-yl)-2,5-dihydro-pyridazino[4,5-b]indol-1-one], the inhibition at 1 µM at MLK1 (GST-MLK1KD) came to 10%. Also, the inhibition at 0.3 µM in series [1] worked out at 4%.

With `O=c1[nH]nc(-c2cccnc2)c2[nH]c3ccccc3c12` [Example 4c, 4-Pyridin-3-yl-2,5-dihydro-pyridazino[4,5-b]indol-1-one], the inhibition at 1 µM on MLK1 (GST-MLK1KD) was 0%. In addition, the inhibition at 0.3 µM in series [1] stood at 14%.

Take `O=c1[nH]nc(-c2ccncc2)c2[nH]c3ccc([N+](=O)[O-])cc3c12` [Example 4v, 8-Nitro-4-pyridin-4-yl-2,5-dihydro-pyridazino[4,5-b]indol-1-one]: the pIC50 at CDK5/GST-p25 is < 5.52.
